This assay concerns T98G cells overexpressing TROY. The assay is described as follows: TROY-induced transwell migration with erlotinib. The assay is classed as cell-based, human. The conditions noted are these: erlotinib (20 uM) 30 min prior to EGF (20 nM), 24 hours. The procedure: FIG. 40 depicts the impact of EGFR suppression by erlotinib on TROY-induced glioma cell migration. Parental T98G (copGFP) and T98G cells overexpressing TROY (TROY WT) were […] for 16 hours and placed into a transwell migration chamber. Cells were then pretreated with erlotinib (20 uM) for 30 min prior to EGF stimulation (20 nM). Cell migration was after 24 hours (* p<0.01).
Thus, the capacity of TROY to stimulate glioma cell invasion and increase TMZ and IR resistance could rely on the formation of a TROY-EGFR signaling complex. This association could activate, or potentiate, shared signaling pathways survival pathways as well as activate distinct TROY signaling pathways that mediate TROY receptor specific functional activities. Therefore, therapeutic approaches targeting TROY and/or both receptors may yield increased therapeutic benefit.

As for `C#Cc1cccc(Nc2ncnc3cc(OCCOC)c(OCCOC)cc23)c1` [erlotinib], the “TROY-induced glioma cell migration” value is “suppresses TROY-induced glioma cell migration”.

The values are drawn from patent US10624895B2, “Methods of sensitizing a patient with glioma to a therapeutic agent by administering small hairpin RNA targeting PDZ-RHOGEF” (THE TRANSLATIONAL GENOMICS RESEARCH INSTITUTE, priority 2016, dated 2020).
